Assay results as given in patent EP1194447B1, “NOVEL POTASSIUM CHANNELS AND GENES ENCODING THESE POTASSIUM CHANNELS” (NEUROSEARCH A/S, priority 1999, dated 2000).

Assays:
KCNQ5 = target: T1, KCNQ5 (Homo sapiens, UniProt Q9NR82); assay: Two-electrode voltage clamp of KCNQ5 homomers expressed in Xenopus oocytes; type: cell-based; conditions: for IC50: extracellular application, Xenopus oocytes, from plotted fit curves (Fig. 5A), means ± SEM of 4 to 12 measurements, read-out: IC50, inhibition of KCNQ5 homomers; for effect on KCNQ5 currents: 10 µM, oocytes injected with KCNQ5 alone (no M1 receptor)
T1 construct: expressed in transfected cells; host or cells: Xenopus oocytes injected with cRNA transcribed from the KCNQ5-containing pTLN vector
Description: Two-electrode voltage-clamp current traces from a Xenopus oocyte injected with KCNQ5 cRNA. […] Starting from a holding potential of -80 mV cells were clamped for 2 seconds to voltages between -80 and +40 mV, in +10 mV steps, followed by a constant test pulse to -30 mV; • Figs. 4A-G show the electrophysiological properties of KCNQ5. Both the splice variant I (found in brain) and splice variant III (found in muscle) were expressed in Xenopus oocytes and examined by two-electrode voltage clamping. Both variants activate slowly upon depolarisation, but form I (4A) initially activates slower than the muscle form III (4B). Starting from a holding potential of -80 mV, the voltage was stepped for 0.8 seconds to values between -100 and + 40 mV in steps of 10 mV, followed by a voltage step to -30 mV (see inset, panel A). Channel activation by depolarization was fitted (for 2 sec. steps) by a sum of three exponential functions. For a step to +20 mV, the rate constants were ô1 = 37. 2 ± 2.2 ms, ô2 = 246 ± 17 ms, and ô3 = 1112 ± 91 ms for splice variant I, while these constants were ô1 = 24.5 ± 0.8 ms, ô2 = 163 ± 6 ms, and ô3 = 1690 ± 46 ms (± SEM, n=16). This difference in kinetics also results in different curves when a typical M-current protocol is used (4C, variant I; 4D, variant III). Variant I induces currents that kinetically resemble M-currents. In this protocol, the membrane voltage is clamped for 1 second to voltages between -30 and -90 mV in steps of -10 mV, from a holding potential of -30 mV. This was followed by a step to -30 mV (panel C, inset). (4E, 4F), apparent open probabilities of variants I (4E) and variant III (4F) as a function of voltage obtained from tail current analysis as described in Methods. Mean values obtained from 12 oocytes are shown. Fitting a Boltzmann equation yielded V½ = -46 ± 1 mV and an apparent gating charge of z = 2.8 ± 0.1 for isoform I, and V½ = -48 ± 1 mV and an apparent gating charge of z = 2.5 ± 0.1 for isoform III. For this fit, values at potentials more positive than +10 mV were excluded, as these are probably affected by a second (inactivation) gating process which leads to a decrease of apparent Popen at more positive potentials. (4G), ion selectivity of KCNQ5 currents (variant I). Extracellular sodium was replaced by equimolar amounts of potassium. The reversal potential is shown as a function of the potassium concentration. […] Data are from 10 oocytes from 2 different batches; • Figs. 5A-C show the pharmacology of KCNQ5 and KCNQ3/5 heteromers. (5A) Inhibition of KCNQ5 homomers by extracellular linopirdine (down triangles), XE991 (up triangles) and TEA (squares). […] (5B) Niflumic acid alters the voltage dependence of the apparent popen. In the presence of 500 µM niflumic acid (open circles), the voltage dependence is shifted about 20 mV towards negative potentials. (5C) TEA sensitivity is altered in KCNQ3/5 heteromers. Coexpression of KCNQ5 and KCNQ3 (1:1) (diamonds) increased the IC50 value to 200 mM, coexpression with the KCNQ3 (T323Y) mutant (circles) decreased the IC50 to ~ 30 mM. […] The pulse protocol is shown in the inset of panel b. No effect of 10 µM muscarine or oxotremorine methiodide was found in oocytes injected with KCNQ5 alone; and • Figs. 7A-C show the interactions between KCNQ2 and KCNQ5 (7A, 7B) and KCNQ3 and KCNQ5 (7C): • (7A) currents at the end of a two second pulse to 0 mV from a holding potential of -80 mV of oocytes injected with different combinations of KCNQ cRNAs (always 10 ng total amount of RNA). The current amplitude elicited by co-injecting KCNQ2 and KCNQ5 could be explained by a linear superposition of currents. Co-injection of KCNQ5 with the dominant negative mutant KCNQ2(G279S) or of KCNQ2 with the equivalent mutant KCNQ5(G278S) lead to a roughly 50% reduction in current amplitude, which is consistent with a lack of interaction since only 50% of WT cRNA was injected; • (7B) normalized current traces of experiments used for panel (A). […]

KCNQ2/KCNQ3 channels = KCNQ2/KCNQ3 channels (Homo sapiens, UniProt O43525+O43526); conditions: 200 µM; cited from earlier work
[1] = target: T2, KCNQ5 coexpressed with KCNQ3 (T323Y) mutant (Homo sapiens, UniProt O43525+Q9NR82, T323Y); assay: Two-electrode voltage clamp of KCNQ5 coexpressed with the KCNQ3 (T323Y) mutant in Xenopus oocytes; type: cell-based; conditions: coexpression of KCNQ5 with the KCNQ3 (T323Y) mutant; Fig. 5C; read-out: IC50 (TEA sensitivity)
T2 construct: expressed in transfected cells; host or cells: Xenopus oocytes co-injected with cRNAs
Description: Two-electrode voltage-clamp current traces from a Xenopus oocyte injected with KCNQ5 cRNA. […] Starting from a holding potential of -80 mV cells were clamped for 2 seconds to voltages between -80 and +40 mV, in +10 mV steps, followed by a constant test pulse to -30 mV; • Figs. 4A-G show the electrophysiological properties of KCNQ5. Both the splice variant I (found in brain) and splice variant III (found in muscle) were expressed in Xenopus oocytes and examined by two-electrode voltage clamping. Both variants activate slowly upon depolarisation, but form I (4A) initially activates slower than the muscle form III (4B). Starting from a holding potential of -80 mV, the voltage was stepped for 0.8 seconds to values between -100 and + 40 mV in steps of 10 mV, followed by a voltage step to -30 mV (see inset, panel A). Channel activation by depolarization was fitted (for 2 sec. steps) by a sum of three exponential functions. For a step to +20 mV, the rate constants were ô1 = 37. 2 ± 2.2 ms, ô2 = 246 ± 17 ms, and ô3 = 1112 ± 91 ms for splice variant I, while these constants were ô1 = 24.5 ± 0.8 ms, ô2 = 163 ± 6 ms, and ô3 = 1690 ± 46 ms (± SEM, n=16). This difference in kinetics also results in different curves when a typical M-current protocol is used (4C, variant I; 4D, variant III). Variant I induces currents that kinetically resemble M-currents. […]

[2] = system: KCNQ5 co-expressed with M1 receptors; assay: KCNQ5 currents in Xenopus oocytes co-expressing M1 receptors (two-electrode voltage clamp); type: cell-based, human; conditions: 10 µM muscarine, 3 minutes after applying; Fig. 6
Description: Two-electrode voltage-clamp current traces from a Xenopus oocyte injected with KCNQ5 cRNA. […] Starting from a holding potential of -80 mV cells were clamped for 2 seconds to voltages between -80 and +40 mV, in +10 mV steps, followed by a constant test pulse to -30 mV; • Figs. 4A-G show the electrophysiological properties of KCNQ5. […] Starting from a holding potential of -80 mV, the voltage was stepped for 0.8 seconds to values between -100 and + 40 mV in steps of 10 mV, followed by a voltage step to -30 mV (see inset, panel A). Channel activation by depolarization was fitted (for 2 sec. steps) by a sum of three exponential functions. For a step to +20 mV, the rate constants were ô1 = 37. […] In this protocol, the membrane voltage is clamped for 1 second to voltages between -30 and -90 mV in steps of -10 mV, from a holding potential of -30 mV. This was followed by a step to -30 mV (panel C, inset). (4E, 4F), apparent open probabilities of variants I (4E) and variant III (4F) as a function of voltage obtained from tail current analysis as described in Methods. Mean values obtained from 12 oocytes are shown. […] For this fit, values at potentials more positive than +10 mV were excluded, as these are probably affected by a second (inactivation) gating process which leads to a decrease of apparent Popen at more positive potentials. (4G), ion selectivity of KCNQ5 currents (variant I). […]

T1 sequence (Q9NR82 36-932 limits assumed): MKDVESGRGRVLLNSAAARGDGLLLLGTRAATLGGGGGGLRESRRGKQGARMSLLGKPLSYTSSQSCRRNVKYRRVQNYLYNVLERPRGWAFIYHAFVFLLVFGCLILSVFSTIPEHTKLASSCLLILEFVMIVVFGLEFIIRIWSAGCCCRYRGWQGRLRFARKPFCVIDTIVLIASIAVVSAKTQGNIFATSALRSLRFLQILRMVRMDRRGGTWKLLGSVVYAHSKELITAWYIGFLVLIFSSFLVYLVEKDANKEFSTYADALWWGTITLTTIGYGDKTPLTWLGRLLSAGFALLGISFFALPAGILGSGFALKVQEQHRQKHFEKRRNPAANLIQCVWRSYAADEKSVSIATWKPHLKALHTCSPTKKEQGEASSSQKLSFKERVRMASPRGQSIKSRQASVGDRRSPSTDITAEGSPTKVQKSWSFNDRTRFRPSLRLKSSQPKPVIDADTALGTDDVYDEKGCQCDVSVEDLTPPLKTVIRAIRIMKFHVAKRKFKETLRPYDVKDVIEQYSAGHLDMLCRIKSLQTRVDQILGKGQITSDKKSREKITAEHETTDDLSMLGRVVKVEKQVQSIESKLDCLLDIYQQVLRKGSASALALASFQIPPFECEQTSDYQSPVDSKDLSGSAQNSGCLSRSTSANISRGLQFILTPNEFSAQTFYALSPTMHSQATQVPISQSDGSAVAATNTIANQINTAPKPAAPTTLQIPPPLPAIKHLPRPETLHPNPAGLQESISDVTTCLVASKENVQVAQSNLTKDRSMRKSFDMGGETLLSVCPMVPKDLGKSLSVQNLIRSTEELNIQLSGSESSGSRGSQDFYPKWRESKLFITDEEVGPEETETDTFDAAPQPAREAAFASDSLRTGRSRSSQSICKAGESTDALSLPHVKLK
Chain of KCNQ2/KCNQ3 channels (O43526 whole entry): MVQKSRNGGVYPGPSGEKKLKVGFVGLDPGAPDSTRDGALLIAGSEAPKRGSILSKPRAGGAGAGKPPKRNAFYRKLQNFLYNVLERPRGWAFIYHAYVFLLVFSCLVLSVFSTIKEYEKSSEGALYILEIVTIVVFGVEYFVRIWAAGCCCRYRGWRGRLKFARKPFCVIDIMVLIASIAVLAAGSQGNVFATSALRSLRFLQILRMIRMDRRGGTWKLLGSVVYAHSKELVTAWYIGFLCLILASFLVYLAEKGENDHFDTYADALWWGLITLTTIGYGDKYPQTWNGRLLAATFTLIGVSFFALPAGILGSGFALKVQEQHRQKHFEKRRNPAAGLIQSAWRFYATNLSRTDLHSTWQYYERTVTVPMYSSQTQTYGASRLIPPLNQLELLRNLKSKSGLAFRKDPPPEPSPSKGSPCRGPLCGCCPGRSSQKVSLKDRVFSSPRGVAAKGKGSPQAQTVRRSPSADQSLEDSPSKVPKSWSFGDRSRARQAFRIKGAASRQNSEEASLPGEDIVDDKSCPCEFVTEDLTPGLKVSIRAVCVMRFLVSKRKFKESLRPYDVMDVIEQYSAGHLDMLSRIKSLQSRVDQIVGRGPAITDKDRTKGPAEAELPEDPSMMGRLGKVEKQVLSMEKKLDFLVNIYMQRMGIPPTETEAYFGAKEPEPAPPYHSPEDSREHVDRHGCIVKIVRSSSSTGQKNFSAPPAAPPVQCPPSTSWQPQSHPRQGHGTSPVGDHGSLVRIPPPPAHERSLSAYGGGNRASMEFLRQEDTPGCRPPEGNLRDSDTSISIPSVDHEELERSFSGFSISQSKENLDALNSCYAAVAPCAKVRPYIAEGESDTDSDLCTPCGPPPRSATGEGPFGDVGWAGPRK
Chain of KCNQ2/KCNQ3 channels (O43525 whole entry): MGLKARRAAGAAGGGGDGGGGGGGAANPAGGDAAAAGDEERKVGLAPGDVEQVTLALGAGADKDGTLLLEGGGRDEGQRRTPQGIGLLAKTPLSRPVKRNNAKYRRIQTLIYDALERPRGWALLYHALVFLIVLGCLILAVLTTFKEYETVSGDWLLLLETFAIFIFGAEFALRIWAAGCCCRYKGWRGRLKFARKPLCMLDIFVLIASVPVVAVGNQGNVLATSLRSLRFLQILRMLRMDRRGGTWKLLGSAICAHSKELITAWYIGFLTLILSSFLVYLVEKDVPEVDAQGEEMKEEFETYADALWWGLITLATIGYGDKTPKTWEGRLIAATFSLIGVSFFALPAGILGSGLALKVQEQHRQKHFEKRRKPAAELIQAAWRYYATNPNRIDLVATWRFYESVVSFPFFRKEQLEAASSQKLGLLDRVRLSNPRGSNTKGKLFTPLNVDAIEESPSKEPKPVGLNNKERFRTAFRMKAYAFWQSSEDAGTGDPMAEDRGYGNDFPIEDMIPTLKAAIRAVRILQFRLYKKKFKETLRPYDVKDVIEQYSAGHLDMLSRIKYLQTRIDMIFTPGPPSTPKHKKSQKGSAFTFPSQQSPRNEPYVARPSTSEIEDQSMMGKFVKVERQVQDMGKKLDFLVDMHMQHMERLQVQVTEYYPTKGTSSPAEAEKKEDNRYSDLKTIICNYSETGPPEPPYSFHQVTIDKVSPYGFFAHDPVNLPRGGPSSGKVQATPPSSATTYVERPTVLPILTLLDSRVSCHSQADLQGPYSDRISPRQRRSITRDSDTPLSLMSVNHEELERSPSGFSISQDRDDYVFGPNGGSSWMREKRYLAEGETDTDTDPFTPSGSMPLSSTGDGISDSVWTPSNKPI
T2 sequence (Q9NR82 36-932 limits assumed): as the sequence (Q9NR82 36-932 limits assumed) above
T2 sequence (O43525 whole entry T323Y): as the sequence (O43525 whole entry) above, with T323Y counted along it

In the case of `[Ba+2]` [Ba^++], the “inhibition of KCNQ5 currents” value (KCNQ5; 5 mM Ba++) is reported as “more than 80%”.
For `O=C1N(c2ccccc2)c2ccccc2C1(Cc1ccncc1)Cc1ccncc1` [Linopirdine, 1,3-dihydro-1-phenyl-3,3-bis-(4-pyridylmethyl)-2H-indol-2-one], the inhibition at 200 µM (KCNQ5; 200 µM Linopirdine in ND98) is listed as about 80%, the IC50 (KCNQ5) is listed as 0.051 ± 0.005 mM and the “inhibition of KCNQ2/KCNQ3 channels” value (KCNQ2/KCNQ3 channels) is listed as “nearly completely inhibits”.
In the case of `O=C(O)c1cccnc1Nc1cccc(C(F)(F)F)c1` [Niflumic acid], the “shift of the voltage dependence of the apparent popen towards negative potentials” value (KCNQ5; 500 µM niflumic acid, Fig. 5B) is reported as “about 20 mV”.
Molecule `CC[N+](CC)(CC)CC` [TEA] has an IC50 (KCNQ5) of 71 ± 17 mM and an IC50 [1] of about 30 mM.
With `C[C@@H]1O[C@H](C[N+](C)(C)C)C[C@H]1O` [muscarine] the “effect on KCNQ5 currents” value (KCNQ5) was “No effect” and the “effect on KCNQ5 currents by stimulating co-expressed M1 receptors” value [2] was “inhibition of KCNQ5 currents”.
With `C[N+](C)(C)CC#CCN1CCCC1=O` [oxotremorine methiodide] the “effect on KCNQ5 currents” value (KCNQ5) was “No effect”.
